According to ChEMBL document CHEMBL1145433, “Nuttingins A-F and malonganenones D-H, tetraprenylated alkaloids from the Tanzanian gorgonian Euplexaura nuttingi” (2007):
Calls of active or inactive are those of the source. The rule behind the calls is not given here.

Assays:
HEK293 = test: Induction of apoptosis in 293 cells at 1.25 ug/mL; format: functional, cell-based; settings: Homo sapiens
K562 [1] = test: Growth inhibition of human K562 cells at 0.4 ug/mL after 48 hrs by MTT assay; format: functional; settings: K562, 48 h
UT7 [2] = test: Growth inhibition of human UT7 cells at 0.4 ug/mL after 48 hrs by MTT assay; format: functional; settings: UT7, 48 h
UT7 [3] = test: Growth inhibition of human UT7 cells by MTT assay; format: functional, cell-based
K562 [4] = test: Growth inhibition of human K562 cells by MTT assay; format: functional, cell-based

**Q.** Which Activity (HEK293) does the source give for `C/C(=C/C(=O)CC(C)C)CCC/C(C)=C/CC/C(C)=C/Cn1cnc2c1c(=O)n(C)c(=O)n2C` here?
**A.** Active

**Q.** For `C/C(=C\CC/C(C)=C/Cn1cnc2c1c(=O)n(C)c(=O)n2C)CC/C=C(\C)CC(=O)CC(C)C`, which Activity (HEK293) is on record?
**A.** Active

**Q.** `C/C(=C\CC/C(C)=C/Cn1cnc2c1c(=O)ncn2C)CC/C=C(\C)CC(=O)CC(C)C` was tested. Which Activity (HEK293) did it give?
**A.** Active

**Q.** For `C/C(=C\CNC=O)CC/C=C(\C)CCC/C(C)=C/C(=O)CC(C)C`, which Activity (HEK293) is on record?
**A.** Active

**Q.** `C/C(=C\Cn1cnc2c1c(=O)ncn2C)CC/C=C(\C)CCC/C(C)=C/C(=O)CC(C)C` was tested. Which Activity (HEK293) did it give?
**A.** Active

**Q.** How did the Activity (HEK293) turn out when `CNC(=O)c1c(N(C)C=O)ncn1C/C=C(\C)CC/C=C(\C)CC/C=C(\C)CC(=O)CC(C)C` was run?
**A.** Active

**Q.** Which Activity (HEK293) does the source give for `CNC(=O)c1c(N(C)C=O)ncn1C/C=C(\C)CC/C=C(\C)CCC/C(C)=C/C(=O)CC(C)C` here?
**A.** Active

**Q.** For `C/C(=C/C(=O)CC(C)C)CCC/C(C)=C/CC/C(C)=C/Cn1cnc2c1C(=O)N(C)CN2C` [NUTTIGIN E], which inhibition at 0.4 µg/mL (K562 [1]) is on record?
**A.** 30%

**Q.** What about the inhibition at 0.4 µg/mL (UT7 [2]) of the same compound?
**A.** 50%

**Q.** And the Activity (HEK293)?
**A.** Active

**Q.** For `C/C(=C\CC/C(C)=C/Cn1cnc2c1C(=O)N(C)CN2C)CC/C=C(\C)CC(=O)CC(C)C` [NUTTINGIN C], which Activity (UT7 [3]) is on record?
**A.** Dose-dependent effect

**Q.** And the Activity (K562 [4])?
**A.** Dose-dependent effect

**Q.** What about the inhibition at 0.4 µg/mL (K562 [1]) of the same compound?
**A.** 30%

**Q.** And the inhibition at 0.4 µg/mL (UT7 [2])?
**A.** 50%

**Q.** And the Activity (HEK293)?
**A.** Active

**Q.** For `C/C(=C\Cn1cnc2c1C(=O)N(C)CN2C)CC/C=C(\C)CCC/C(C)=C/C(=O)CC(C)C` [NUTTINGIN D], which Activity (UT7 [3]) is on record?
**A.** Dose-dependent effect

**Q.** What about the Activity (K562 [4]) of the same compound?
**A.** Dose-dependent effect

**Q.** And the inhibition at 0.4 µg/mL (K562 [1])?
**A.** 30%

**Q.** What about the inhibition at 0.4 µg/mL (UT7 [2]) of the same compound?
**A.** 50%

**Q.** And the Activity (HEK293)?
**A.** Active
